Columns and labels:
[1] = target: Methyl-CpG-binding domain protein 4 (Homo sapiens) (UniProt O95243); conditions: Hit No;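 also: MBD4 activity read as fluorescence at 594 nm from cleavage and release of a quenched duplex DNA oligonucleotide, with APE1 coupled to incise the strand and raise turnover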
[2] = target: Endonuclease 8-like 1 (Homo sapiens) (UniProt Q96FI4); conditions: Hit No;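 also: fluorescence at 594 nm from quenched duplex DNA oligonucleotides released by NEIL1 cleavage and strand separation, reported as reduction of this enzyme activity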
[3] = target: T1, Endonuclease 8-like 2 (Homo sapiens) (UniProt Q969S2); conditions: Compound Concentration 10.0 uM, Hit No;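 also: fluorescence at 594 nm reports NEIL2 cutting and release of a quenched double-stranded DNA oligo substrate, reduced signal read as inhibition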
T1 sequence (whole entry): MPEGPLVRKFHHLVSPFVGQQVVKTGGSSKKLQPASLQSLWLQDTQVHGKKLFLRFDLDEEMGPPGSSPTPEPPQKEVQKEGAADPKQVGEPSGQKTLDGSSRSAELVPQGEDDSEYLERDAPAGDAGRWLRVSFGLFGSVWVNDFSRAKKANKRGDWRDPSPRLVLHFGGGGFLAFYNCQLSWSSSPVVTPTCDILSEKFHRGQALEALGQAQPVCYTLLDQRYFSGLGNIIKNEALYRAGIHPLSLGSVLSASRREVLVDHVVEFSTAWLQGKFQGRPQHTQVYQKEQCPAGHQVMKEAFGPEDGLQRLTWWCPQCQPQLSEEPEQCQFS
Description: Inhibition of NEIL2 by quantifying inhibition of NEIL2-mediated cleavage and dissociation of quenched duplex DNA oligonucleotides, measured as fluorescence at 594 nm.

[4] = target: T2, Endonuclease III-like protein 1 (Homo sapiens) (UniProt P78549); conditions: Hit No;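 also: enzyme assay tracking NTHL1 cutting and release of a quenched double-stranded DNA oligo substrate, read as fluorescence at 594 nm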
T2 sequence (whole entry): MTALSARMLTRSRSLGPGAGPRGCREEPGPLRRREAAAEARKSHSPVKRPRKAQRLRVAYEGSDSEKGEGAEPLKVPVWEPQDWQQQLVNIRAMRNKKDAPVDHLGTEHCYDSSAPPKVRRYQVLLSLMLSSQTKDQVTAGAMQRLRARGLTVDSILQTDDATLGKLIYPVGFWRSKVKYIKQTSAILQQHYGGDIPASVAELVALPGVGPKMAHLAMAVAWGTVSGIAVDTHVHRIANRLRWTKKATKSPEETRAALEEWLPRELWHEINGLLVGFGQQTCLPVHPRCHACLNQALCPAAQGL

[5] = target: T3, Single-strand selective monofunctional uracil DNA glycosylase (Homo sapiens) (UniProt Q53HV7); conditions: Hit No;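 also: enzymatic SMUG1 assay coupled with APE1, reading fluorescence at 594 nm released when a quenched double-stranded DNA oligonucleotide substrate is cleaved and separated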
T3 sequence (whole entry): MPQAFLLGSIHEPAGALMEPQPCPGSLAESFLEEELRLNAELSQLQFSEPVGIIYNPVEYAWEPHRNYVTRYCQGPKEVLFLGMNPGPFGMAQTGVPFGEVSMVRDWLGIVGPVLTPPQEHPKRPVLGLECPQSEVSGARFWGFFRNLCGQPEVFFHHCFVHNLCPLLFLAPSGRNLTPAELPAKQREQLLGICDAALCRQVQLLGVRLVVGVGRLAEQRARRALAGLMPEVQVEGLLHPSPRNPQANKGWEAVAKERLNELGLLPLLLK

[6] = target: G/T mismatch-specific thymine DNA glycosylase (Homo sapiens) (UniProt Q13569); conditions: Hit No;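 also: human TDG cleavage of quenched duplex DNA oligonucleotides coupled to APE1, strand release read as fluorescence at 594 nm, inhibition of TDG activity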
[7] = target: Uracil-DNA glycosylase (Homo sapiens) (UniProt P13051); conditions: Hit No;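 also: UNG excision on a quenched double-stranded DNA oligo probe, with APE1 added for strand incision and turnover, read as fluorescence at 594 nm as strands separate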
[8] = target: N-glycosylase/DNA lyase (Homo sapiens) (UniProt O15527); conditions: Hit No;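 also: OGG1 cleavage of a quenched duplex DNA oligonucleotide, coupled to APE1 for strand incision, read as fluorescence at 594 nm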
N-glycosylase/DNA lyase (Homo sapiens), sequence (O15527 whole entry): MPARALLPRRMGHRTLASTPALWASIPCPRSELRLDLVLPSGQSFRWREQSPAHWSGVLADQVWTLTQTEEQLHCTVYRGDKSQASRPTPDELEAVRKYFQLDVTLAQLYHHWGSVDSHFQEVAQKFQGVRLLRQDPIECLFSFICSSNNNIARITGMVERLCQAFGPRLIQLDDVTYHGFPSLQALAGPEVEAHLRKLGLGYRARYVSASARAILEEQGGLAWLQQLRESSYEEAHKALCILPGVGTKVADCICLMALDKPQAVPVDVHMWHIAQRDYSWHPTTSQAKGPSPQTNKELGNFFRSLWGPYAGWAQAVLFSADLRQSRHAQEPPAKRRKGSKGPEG
Description: Inhibition of OGG1 by quantifying inhibition of OGG1-mediated cleavage and dissociation of quenched duplex DNA oligonucleotides, measured as fluorescence at 594 nm. To generate a functional strand incision and increase turn-over this assay is coupled to APE1.

Uracil-DNA glycosylase (Homo sapiens), sequence (P13051 whole entry): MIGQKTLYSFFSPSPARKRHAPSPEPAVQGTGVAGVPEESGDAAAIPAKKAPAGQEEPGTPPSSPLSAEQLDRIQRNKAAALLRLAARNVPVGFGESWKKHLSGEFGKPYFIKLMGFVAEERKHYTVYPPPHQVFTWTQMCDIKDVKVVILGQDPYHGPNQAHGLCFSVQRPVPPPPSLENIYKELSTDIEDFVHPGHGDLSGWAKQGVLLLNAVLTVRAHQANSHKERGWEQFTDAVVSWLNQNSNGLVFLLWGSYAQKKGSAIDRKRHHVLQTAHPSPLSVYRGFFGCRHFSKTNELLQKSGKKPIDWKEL
Methyl-CpG-binding domain protein 4 (Homo sapiens), sequence (O95243 whole entry, the tested form may be a part): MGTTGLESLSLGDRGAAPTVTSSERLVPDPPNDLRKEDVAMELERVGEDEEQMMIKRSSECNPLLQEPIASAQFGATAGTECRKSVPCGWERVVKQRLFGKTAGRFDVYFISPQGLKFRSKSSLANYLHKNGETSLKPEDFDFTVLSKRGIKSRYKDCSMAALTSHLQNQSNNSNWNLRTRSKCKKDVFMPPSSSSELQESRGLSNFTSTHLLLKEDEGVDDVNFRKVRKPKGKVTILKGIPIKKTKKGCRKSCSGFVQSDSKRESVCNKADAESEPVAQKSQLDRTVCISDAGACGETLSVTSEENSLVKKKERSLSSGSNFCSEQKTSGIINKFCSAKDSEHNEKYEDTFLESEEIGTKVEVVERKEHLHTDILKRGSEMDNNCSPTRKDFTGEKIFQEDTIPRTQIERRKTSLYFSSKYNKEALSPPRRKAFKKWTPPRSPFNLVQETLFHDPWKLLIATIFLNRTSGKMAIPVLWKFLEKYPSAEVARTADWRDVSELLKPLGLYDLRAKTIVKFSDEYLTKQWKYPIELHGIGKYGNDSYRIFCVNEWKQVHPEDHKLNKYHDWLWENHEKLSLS
G/T mismatch-specific thymine DNA glycosylase (Homo sapiens), sequence (Q13569 whole entry): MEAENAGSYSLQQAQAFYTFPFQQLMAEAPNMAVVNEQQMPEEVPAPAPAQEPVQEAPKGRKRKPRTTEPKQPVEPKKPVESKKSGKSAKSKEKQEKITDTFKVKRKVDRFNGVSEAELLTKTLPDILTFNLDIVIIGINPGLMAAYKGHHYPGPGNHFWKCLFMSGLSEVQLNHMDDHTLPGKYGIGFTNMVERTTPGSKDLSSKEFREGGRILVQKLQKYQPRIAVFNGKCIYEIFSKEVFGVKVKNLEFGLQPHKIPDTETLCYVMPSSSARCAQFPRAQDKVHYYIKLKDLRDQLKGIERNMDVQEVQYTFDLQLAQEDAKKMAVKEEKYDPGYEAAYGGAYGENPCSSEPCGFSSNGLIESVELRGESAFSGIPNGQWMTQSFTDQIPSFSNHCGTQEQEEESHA
Endonuclease 8-like 1 (Homo sapiens), sequence (Q96FI4 whole entry): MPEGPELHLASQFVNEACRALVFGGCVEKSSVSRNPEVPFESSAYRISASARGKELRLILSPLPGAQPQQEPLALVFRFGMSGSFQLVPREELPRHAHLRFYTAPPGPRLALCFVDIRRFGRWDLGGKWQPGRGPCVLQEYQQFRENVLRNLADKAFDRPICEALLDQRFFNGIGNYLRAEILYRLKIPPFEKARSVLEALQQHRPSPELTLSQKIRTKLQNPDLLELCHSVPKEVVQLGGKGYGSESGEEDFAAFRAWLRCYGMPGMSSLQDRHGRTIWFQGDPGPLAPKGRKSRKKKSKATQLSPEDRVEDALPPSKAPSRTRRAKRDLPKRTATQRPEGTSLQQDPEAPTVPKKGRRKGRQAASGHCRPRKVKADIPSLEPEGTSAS

| Structure (SMILES) | inhibition ([1]; Compound Concentration 10.0 uM) [%] | inhibition ([2]; Compound Concentration 10.0 uM) [%] | inhibition [3] [%] | inhibition ([4]; Compound Concentration 10.0 uM) [%] | inhibition ([5]; Compound Concentration 10.0 uM) [%] | inhibition ([6]; Compound Concentration 10.0 uM) [%] | inhibition ([7]; Compound Concentration 10.0 uM) [%] | inhibition ([8]; Compound Concentration 10.0 uM) [%] | inhibition ([1]; Compound Concentration 1.0 uM) [%] | inhibition ([2]; Compound Concentration 1.0 uM) [%] | inhibition ([4]; Compound Concentration 1.0 uM) [%] | inhibition ([8]; Compound Concentration 1.0 uM) [%] | inhibition ([5]; Compound Concentration 1.0 uM) [%] | inhibition ([6]; Compound Concentration 1.0 uM) [%] | inhibition ([7]; Compound Concentration 1.0 uM) [%] |
| --- | --- | --- | --- | --- | --- | --- | --- | --- | --- | --- | --- | --- | --- | --- | --- |
| Cn1ncnc1COc1nn2c(-c3c(F)cccc3F)nnc2cc1C1CCC1 | -5.71 | 7.71 | -3.41 | 22.9 | 1.23 | 15.4 | -7.24 |  |  |  |  |  |  |  |  |
| CCOc1cc(N2CCC(O)CC2)ccc1Nc1ncc2c(n1)N(C1CCCC1)CCC(=O)N2C | -5.19 | -5.28 |  | -6.19 | 12.4 | 36.7 | -0.0214 |  |  |  |  |  |  |  |  |
| Cc1cc2c(-c3ccco3)cnc(N[C@@H]3CCN(C)C[C@H]3C(=O)NC3CCCCC3)c2[nH]c1=O | 58.5 |  |  | -9.18 |  | 33.3 | -3.36 |  |  |  |  |  |  |  |  |
| COc1cccc(CNC(=O)c2nc3scc(CN(C)Cc4ccccc4)c3c(=O)[nH]2)c1 | 59.5 | -6.05 |  | -9.83 | 12.8 | 43.2 | 2.11 | 4.36 |  |  |  |  |  |  |  |
| CCC1(C2=NCCN2)Cc2ccccc2O1 (centres undefined) | 3.23 | -9.99 | -5.22 | 1.19 |  | 2.85 | -0.713 | -0.183 |  |  |  |  |  |  |  |
| CN(C)C(=O)c1sc2nc(N3CCC(S(C)(=O)=O)CC3)cc(C(F)(F)F)c2c1N | 1.76 | -3.24 |  | 2.05 | -2.07 | -5.21 |  | -1.24 |  |  |  |  |  |  |  |
| CC(C)(C)OC(=O)N1CCCC1CNC1CCC(c2cc(F)ccc2F)(S(=O)(=O)c2ccc(Cl)cc2)CC1 (centres undefined) | 45.5 |  |  | -1.29 | 19.7 | 17.3 | 1.86 | 4.85 |  |  |  |  |  |  |  |
| CNC[C@H](O)c1cccc(O)c1 | -3.74 | -4.8 | 7.25 | -9.8 | -2.99 | -5.83 |  | -3.42 |  |  |  |  |  |  |  |
| O=C(O)[C@@H]1[C@@H](Cn2nnc3ccccc3c2=O)CC[C@H]1C(=O)c1ccc(OCCC2CCOCC2)cc1 | 57.8 |  |  | -5.23 | 18.6 | 49.2 | 2.54 | 7.75 |  |  |  |  |  |  |  |
| COc1c(OCCCN2CCOCC2)ccc2c1N=C(NC(=O)c1cnc(N)nc1)N1CCN=C21 |  |  |  |  |  |  |  |  | -2.38 | -8.98 | 4.97 | 5.38 | 20 | 26.4 | -3.63 |
| CCc1cc(Nc2nccc(-c3c(-c4ccc(OC)c(C(=O)Nc5c(F)cccc5F)c4)nc4ccccn34)n2)c(OC)cc1N1CCC(N2CCN(S(C)(=O)=O)CC2)CC1 |  |  |  |  |  |  |  |  | 32.9 | -8.84 | -1.31 | 10.7 | 21.4 | 50.7 | 0.56 |
| COc1cc(C(=O)O)ncc1C#Cc1ccccc1NS(=O)(=O)c1cccc2c(N(C)C)ccnc12 | 66.6 | -0.29 | 6.91 | -8.52 | 6.29 | 46.3 | 2.52 |  |  |  |  |  |  |  |  |
| COc1ccc([C@@H]2Sc3ccccc3N(CCN(C)C)C(=O)[C@@H]2OC(C)=O)cc1 | -5.04 | 3.71 |  | 30.3 | 0.325 | -1.73 | -4.36 |  |  |  |  |  |  |  |  |
| Cn1cc(-c2ccc3occ(-c4cccc(-c5ccncc5)c4)c3n2)cn1 | -1.5 | -1.18 | -5.69 | -8.98 | 13.1 | 42.6 | -1.77 |  |  |  |  |  |  |  |  |
| CSc1cccnc1N1CCN(Cc2nc3ccccc3[nH]2)CC1 | 54.7 |  |  | -5.89 | 6.69 | 19.8 | 0.535 | 6.57 |  |  |  |  |  |  |  |
| CCOc1cn(-c2ccc(F)cc2C)nc1C(=O)Nc1ccc(Oc2ccnc3cc(OC)c(OC)cc23)c(F)c1 |  |  |  |  |  |  |  |  | 31.6 | 0.138 | -2 |  | 21.7 | 46.5 | 1.39 |
| N#CC1(c2ccccn2)CCN(Cc2cc(C(=O)O)c(=O)n3ccccc23)CC1 | 93 | -0.139 | 0.531 | -9.18 |  | 45.8 | 1.66 | -3.75 |  |  |  |  |  |  |  |
| CC(C)c1c(NC(=O)Nc2ccc(Cl)cc2)c(=O)n(-c2ccccc2)n1C | 31.2 | 4.99 | -6.97 | 12.9 | -6.14 | -4.69 |  | -7 |  |  |  |  |  |  |  |
| C[C@H](NC(=O)c1cnc2n1[C@](C)(Cc1ccc(C#N)cc1)C(=O)N2c1cc(Cl)c(F)c(Cl)c1)C(=O)NC1(c2ccccn2)CC1 | 60.9 | 5.16 | -4.83 | -4.57 | 22.8 | 52.5 | 7.8 |  |  |  |  |  |  |  |  |
| Cc1onc(O)c1CC(N)C(=O)O (centres undefined) |  | -4.58 | -2.64 | -3.56 | -3.23 | 5.29 | -3.91 | -2.69 |  |  |  |  |  |  |  |
| COc1ccc(CC[C@@H](OC(=O)[C@@H]2CCCCN2C(=O)[C@H](c2cc(OC)c(OC)c(OC)c2)C2CCCCC2)c2cccc(OCCN3CCOCC3)c2)cc1OC | 43.3 |  |  | -7.86 | 4.21 | 31.2 | 0.833 | -4.59 |  |  |  |  |  |  |  |
| C[C@@H]1CN(c2nccc(Nc3ccc4c(c3)n(CCC(C)(C)O)c(=O)n4C)n2)C[C@H](C)C1(F)F | 56.2 | -3.77 | -8.14 | -0.63 | 7.55 | 98.6 | 5.07 |  |  |  |  |  |  |  |  |
| CO[C@@H](C)c1c(Nc2ccc([C@@H](N(C)C(=O)C3CCS(=O)(=O)CC3)C(F)(F)F)cc2)cnc2cc(Cl)nn12 | 93.9 | -6.35 | 0.0213 | -9.83 | 13.4 | 42.7 | 0.795 |  |  |  |  |  |  |  |  |
| COc1ncc(F)cc1CNc1ccc(Cc2c[nH]c3ncc(C)cc23)c(F)n1 |  | 1.33 | 2.39 | -7.58 | 18.6 | 37.9 | 6.92 | 5.69 |  |  |  |  |  |  |  |
| C[C@H](Cc1cc2c(c(C(N)=O)c1)N(CCCO)CC2)NCCOc1ccccc1OCC(F)(F)F |  | -4.21 | -1.48 | -1.01 | 1.13 | 2.34 | -9.87 | -6.28 |  |  |  |  |  |  |  |
| Cc1c(P(=S)(c2ccccc2)c2ccccc2)n2ccccc2[n+]1C/C=C/c1ccccc1 |  | 11.1 | -6.97 | 23.9 | -6.48 | 35.9 | -7.24 | 1.08 |  |  |  |  |  |  |  |
| CCNC1(C(N)=O)CCN(c2ncnc3c2nc(-c2ccccc2Cl)n3-c2ccc(Cl)cc2)CC1 |  | 1.13 | 3.76 | 17.3 | 12.2 | 11.7 | -6.19 | -3.75 |  |  |  |  |  |  |  |
| COc1ccnc(N2CCC3(CCCN(Cc4c[nH]c5ccccc45)C3=O)CC2)n1 | -0.547 | 9.14 | -0.983 | 6.32 | 15.5 | 4.73 |  | -2.11 |  |  |  |  |  |  |  |
| CC1=C(C(=O)Nc2cc3cn[nH]c3cc2F)C(c2ccc(C(F)(F)F)cc2)CC(=O)N1 (centres undefined) | 18 | 4.1 | 3.2 | -2.7 | 22.4 | 34.3 | 7.25 |  |  |  |  |  |  |  |  |
| CC1=C2C[C@H]3[C@@H](CC=C4C[C@@H](O)CC[C@@]43C)[C@@H]2CC[C@]12O[C@@H]1C[C@H](C)CN[C@H]1[C@H]2C |  | -3.61 | 1.26 | -6.14 | 2.68 | 5.99 | -9.72 | -3.73 |  |  |  |  |  |  |  |
